For one substance, elicitor activity results are on record in patent publication US20060021470A1, “Compositions for enhancing biological functions in organisms” (priority 2004, published 2006).

For the assay, the system named is ech42 (42-kDa endochitinase-encoding) gene expression. The experiment in a line: ech42 endochitinase promoter:gfp induction in T. atroviride strain P1. The class given is cell-based. As to conditions: endochitinase promoter:gfp fluorescence in Trichoderma strain P1. From the text:
To monitor chitinase expression during mycoparasitism of Trichoderma atroviride (formerly T. harzianum) strain P1 in situ, the strain was transformed with plasmids containing fusions of green fluorescent protein (“gfp”) to the 5-regulatory sequences of the T. atroviride nag1 gene (N-acetyl-beta-D-glucosaminidase-encoding) or ech42 (42-kDa endochitinase-encoding) genes. Confronting these strains with the target Rhizoctonia solani led to induction of gene expression before (ech42) or after (nag 1) physical contact. […] The chitinase inhibitor allosamidin blocked ech42 expression and reduced inhibition of R. solani growth during confrontation. […] T. atroviride, T. harzianum, and any other species of Trichoderma produce small quantities of particular enzymes constitutively. […]
The ability of Trichoderma to release elicitor compounds from the various target fungi was measured by induction of gfp in the endochitinase promoter labeled P1 strain of Trichoderma. […]
In subsequent experiments, the release of elicitors from cell walls of some of the same fungi and Oomycetes tested above using enzymes (endochitinase, glucanase, exochitinase, mixed cellulase) purified from T. atroviride was assessed. Again, the elicitation abilities of the materials were assessed with Trichoderma strain P1 transformed to contain the endochitinase promoter:gfp construct. […]

Take Chitobiose: the elicitor activity result is “least effective”.
